Experimental data: US6794491B1, “Polypeptides, their production and use” (Takeda Chemical Industries, Ltd., priority 1995, dated 2004)
Where no end group is shown, it is not given here.

Legend:
[1] = reserpine-induced hypothermia in mice; format: in vivo, ICR male mice; conditions: lateral ventricle
Protocol: The mature ICR male mice (weight at operation: about 35 g) were anesthetized by administration of pentobarbital (50 mg/kg, i.p.), and then fixed on stereotaxic apparatus. The skull of a said mouse was exposed, then a hole was made by dental drill for guide-cannulization into the left lateral ventricle. The tip of a stainless-steel guide-cannula (24 G, length: 5 mm) for drug injection to lateral ventricle, was inserted to the position of AP: +0.6 mm (from bregma), L: left 1 mm and H: −1 mm (from dura matter). The guide-cannula was fixed onto the skull with adhesive. The cannula-implanted mice were housed as described above and were used for measurements of body temperature at least 3 days after the operation. Reserpine (Apoplon; Daiichi Pharmaceutical) was administered to mice at a dose of 3 mg/kg, s.c., and after 15 hours, each mouse was placed in a cage for the measurement. Then a stainless-steel micro-injection cannula (30 G, length: 6 mm) was inserted into the guide-cannula. The micro-injection cannula was connected to a microsyringe pump with Teflon tube, and injection of PBS or a peptide dissolved in PBS lasted for 2 minutes at a speed of 1 μl/min. The micro-injection cannula was withdrawn after over a period of 2 minutes from end of injection, than the temperature in rectum was measured.
(§1) The results are expressed as a mean±S.E.M. Student's t test was used to determine the significance of differences between values from the mice treated with a peptide and the PBS-injected controls. For the purpose of this analysis, p<0.05 was assumed to be the minimal level of significance.

[2] = molecular target: T1, UHR-1 expressed in CHO cells (CHO-UHR1) (Rattus norvegicus, UniProt Q64121, L289V); assay: release of arachidonic acid metabolites from CHO-UHR1 cells; format: cell-based; conditions: CHO cells expressing rat homolog UHR1; duplicate
T1 construct: expressed in transfected cells; host or cells: CHO dhfr- cells transfected with pAKKO-UHR-1
T1 sequence (Q64121 1-370 L289V): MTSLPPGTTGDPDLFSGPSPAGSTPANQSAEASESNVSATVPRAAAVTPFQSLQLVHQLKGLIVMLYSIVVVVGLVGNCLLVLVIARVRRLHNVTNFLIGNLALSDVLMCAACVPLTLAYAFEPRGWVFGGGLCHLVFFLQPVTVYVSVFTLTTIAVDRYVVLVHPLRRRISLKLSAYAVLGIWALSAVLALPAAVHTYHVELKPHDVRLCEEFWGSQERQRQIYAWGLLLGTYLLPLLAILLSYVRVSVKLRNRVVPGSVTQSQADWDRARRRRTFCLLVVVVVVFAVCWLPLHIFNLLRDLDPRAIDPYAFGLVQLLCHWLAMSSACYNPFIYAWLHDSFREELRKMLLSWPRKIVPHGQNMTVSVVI
Protocol: The full-length receptor protein-expressed CHO cells and mock CHO cells were seeded in a 24-well plate, 0.5×10^5 cells/well, and cultured for 24 hours. Then, [^3H] arachidonic acid was added at a final concentration of 0.25 μCi/well. Sixteen (16) hours after addition of [^3H] arachidonic acid, the cells were rinsed with 0.05% BSA-HBSS and the above-mentioned crude peptide fraction was added, 400 μl/well. The mixture was incubated at 37° C. for 30 minutes and a 300 μl portion of the reaction mixture (400 μl) was added to 4 ml of a scintillator and the amount of [^3H] arachidonic acid metabolite released into the reaction mixture was determined with a scintillation counter.
Same as described in Example 11, the release activity of arachidonic acid metabolite was measured on CHO-19P2-9 and CHO-UHR1 and mock CHO.

[3] = motor activity of mouse after administration to lateral ventricle; format: in vivo, ICR male mice; conditions: for rearing behavior (increasing tendency) / spontaneous motor activity / rearing behavior: lateral ventricle, mouse
Protocol: The effects of administration of […] to mouse lateral ventricle on motor activity were studied. The mature ICR male mice (weight at operation: about 35 g) were anesthetized by intraperitoneal administration of 50 mg/kg of pentobarbital, and then fixed on a stereotaxic apparatus. The skull of a said mouse was exposed, then a hole was made by dental drill for guide-cannulization into the left lateral ventricle. The tip of a stainless-steel guide-cannula (24 G, length: 5 mm) for drug injection to lateral ventricle, was inserted to the position of AP: +0.6 mm (from bregma), L: left 1 mm and H: −1 mm (from dura matter). The guide-cannula was fixed onto the skull with adhesive. The cannula-implanted mice were housed as described above and were used for behavioral analysis at least 3 days after the operation.
Motor activity such as spontaneous motor activity and rearing was measured while each mouse was in a transparent acrylic cage (24×37×30 cm) within a soundproofed, illuminated (light up: at 6-18 o'clock) box. Tap water and laboratory chow were available ad libitum. Motor activity was measured by means of a Supermex (Muromachi Kikai). Drugs and PBS were administered at 2:30±30 p.m. At the administration, a stainless-steel micro-injection cannula (30 G, length: 6 mm) was inserted into the guide-cannula. The micro-injection cannula was connected to a microsyringe pump with Teflon tube, and injection of PBS or a peptide dissolved in PBS lasted for 2 minutes at a speed of 2 μl/min. The micro-injection cannula was withdrawn after over a period of 2 minutes from end of injection, then motor activity was meausred.
as §1

**Q.** With “Ser-Arg-Ala-His-Gln-His-Ser-Met-Glu-Ile-Arg-Thr-Pro-Asp-Ile-Asn-Pro-Ala-Trp-Tyr-Ala-Gly-Arg-Gly-Ile-Arg-Pro-Val-Gly-Arg-Phe-NH2 (SRAHQHSMEIRTPDINPAWYAGRGIRPVGRF-NH2) [19P2-L31, synthetic ligand polypeptide]” as the substance, how does the “temperature variation versus PBS-injected control” value ([1]; 1 nmol, reserpine-treated mice) read?
**A.** no statistically significant difference

**Q.** What about the “body temperature lowered by reserpine” value ([1]; 10 nmol, mice, 15 hours after reserpine 3 mg/kg s.c., versus PBS) of the same substance?
**A.** increased significantly

**Q.** And the “time of maximum increase of body temperature after administration” value ([1]; 10 nmol, reserpine-treated mice)?
**A.** 45 min

**Q.** And the “release activity of arachidonic acid metabolite” value [2]?
**A.** detected same as CHO-19P2-9

**Q.** And the “rearing behavior (increasing tendency)” value ([3]; 0.01 nmol)?
**A.** not statistically significant

**Q.** What about the spontaneous motor activity ([3]; 0.01 nmol, at 20 min and 40 min after injection) of the same substance?
**A.** significant increase

**Q.** What about the “rearing behavior (increasing tendency)” value ([3]; 0.1 nmol) of the same substance?
**A.** not statistically significant

**Q.** What about the spontaneous motor activity ([3]; 0.1 nmol, at 25 min, 40 min and 70 min after injection) of the same substance?
**A.** significant increase

**Q.** What about the spontaneous motor activity ([3]; 1 nmol) of the same substance?
**A.** did not cause statistically significant change

**Q.** What about the rearing behavior ([3]; 1 nmol, at only 105 min after injection) of the same substance?
**A.** significant decrease

**Q.** And the rearing behavior ([3]; 10 nmol)?
**A.** significant variation

**Q.** And the spontaneous motor activity ([3]; 10 nmol)?
**A.** significant increase

**Q.** And the “amount of activity (motor activity)” value ([3]; 0.01-10 nmol, lateral ventricle of mice, summary)?
**A.** an increase in the amount of activity was found
